How the values were obtained:
THR alpha = molecular target: T1, THR alpha (Homo sapiens, UniProt P10827); assay: HEK293T THR alpha/RXR luciferase reporter assay (Assay 2); assay type: cell-based; conditions: Assay 2; for Emax: HEK-293T, Table 5, THRα, read-out: Activity category Assay 2 THRα (Emax); for EC50: Table 4, THR-alpha, read-out: Activity category Assay 2 (EC50, THR-alpha agonist activity)
T1 construct: expressed in transfected cells; host or cells: HEK293T (ATCC CRL-3216)
T1 sequence (P10827 1-410 isoform P10827-2): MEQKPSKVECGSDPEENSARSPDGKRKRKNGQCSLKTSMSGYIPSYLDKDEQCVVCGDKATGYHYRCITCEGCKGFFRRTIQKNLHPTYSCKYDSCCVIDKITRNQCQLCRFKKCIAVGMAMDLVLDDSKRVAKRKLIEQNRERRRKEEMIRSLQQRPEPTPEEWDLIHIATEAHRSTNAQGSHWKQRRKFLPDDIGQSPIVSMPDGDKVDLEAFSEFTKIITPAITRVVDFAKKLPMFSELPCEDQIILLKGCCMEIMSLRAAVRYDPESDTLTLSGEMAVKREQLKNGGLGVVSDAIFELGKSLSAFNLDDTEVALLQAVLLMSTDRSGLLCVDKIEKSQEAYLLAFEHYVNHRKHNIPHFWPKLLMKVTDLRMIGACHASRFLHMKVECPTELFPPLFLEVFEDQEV
T1 sequence (P19793 1-462 partner): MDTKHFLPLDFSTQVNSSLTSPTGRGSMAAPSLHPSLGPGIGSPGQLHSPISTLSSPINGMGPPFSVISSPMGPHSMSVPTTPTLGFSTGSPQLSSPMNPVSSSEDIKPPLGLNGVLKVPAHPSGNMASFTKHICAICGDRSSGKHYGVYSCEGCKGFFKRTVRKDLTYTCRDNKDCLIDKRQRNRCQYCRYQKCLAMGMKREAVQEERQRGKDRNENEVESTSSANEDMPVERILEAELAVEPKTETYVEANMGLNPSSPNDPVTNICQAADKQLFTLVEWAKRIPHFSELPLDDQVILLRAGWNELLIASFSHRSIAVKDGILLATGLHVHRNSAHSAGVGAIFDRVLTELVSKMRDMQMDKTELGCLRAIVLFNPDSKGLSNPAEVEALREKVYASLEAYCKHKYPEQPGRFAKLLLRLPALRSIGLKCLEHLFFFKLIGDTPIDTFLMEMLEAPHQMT
How it was run: (§1)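 Compounds tested as ten-point five-fold dilution series for 18-24 h on transiently transfected HEK293T cells carrying TRE-driven luciferase plus RXR and either THR alpha or beta expression plasmids. Read-out by One-Glo luminescence, expressed as percent agonism relative to negative and positive controls.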

[1] = molecular target: T2, human thyroid receptor beta ligand-binding domain (LBD) (Homo sapiens, UniProt P10828); assay: TR-FRET thyroid receptor beta coactivator assay (THR biochemical assay, Assay 1); conditions: for EC50: THR-beta, TR-FRET coactivator assay, read-out: Activity category Assay 1 (EC50, THR-beta agonist); for Emax: Table 5, Assay 1, THRβ, read-out: Activity category Assay 1 THRβ (Emax)
T2 construct: purchased Invitrogen
T2 sequence (P10828 217-461 limits assumed): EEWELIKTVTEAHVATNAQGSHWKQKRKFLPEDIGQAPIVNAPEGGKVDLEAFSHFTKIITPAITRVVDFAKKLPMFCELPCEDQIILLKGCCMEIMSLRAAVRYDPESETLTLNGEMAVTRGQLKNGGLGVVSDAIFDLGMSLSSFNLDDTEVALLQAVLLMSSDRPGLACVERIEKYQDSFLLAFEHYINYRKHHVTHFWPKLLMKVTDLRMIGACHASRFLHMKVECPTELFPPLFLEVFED
How it was run: (§2)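 Agonist-driven coactivator recruitment measured by TR-FRET: terbium anti-GST antibody (2 nM) bound to GST-LBD of TRβ or TRα (1 nM final, stated for β), with fluorescein SRC2-2 peptide at 200 nM. Compounds at 1% DMSO. Read after 1 h, room temperature, protected from light.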

THR beta = molecular target: T3, THR beta (Homo sapiens, UniProt P10828); assay: HEK293T THR beta/RXR luciferase reporter assay (Assay 2); assay type: cell-based; conditions: for Emax: HEK-293T, Table 5, Assay 2, THRβ, read-out: Activity category Assay 2 THRβ (Emax); for EC50: THR-beta, HEK293T reporter assay, read-out: Activity category Assay 2 (EC50, THR-beta agonist)
T3 construct: expressed in transfected cells; host or cells: HEK293T (ATCC CRL-3216)
T3 sequence (P10828 1-461): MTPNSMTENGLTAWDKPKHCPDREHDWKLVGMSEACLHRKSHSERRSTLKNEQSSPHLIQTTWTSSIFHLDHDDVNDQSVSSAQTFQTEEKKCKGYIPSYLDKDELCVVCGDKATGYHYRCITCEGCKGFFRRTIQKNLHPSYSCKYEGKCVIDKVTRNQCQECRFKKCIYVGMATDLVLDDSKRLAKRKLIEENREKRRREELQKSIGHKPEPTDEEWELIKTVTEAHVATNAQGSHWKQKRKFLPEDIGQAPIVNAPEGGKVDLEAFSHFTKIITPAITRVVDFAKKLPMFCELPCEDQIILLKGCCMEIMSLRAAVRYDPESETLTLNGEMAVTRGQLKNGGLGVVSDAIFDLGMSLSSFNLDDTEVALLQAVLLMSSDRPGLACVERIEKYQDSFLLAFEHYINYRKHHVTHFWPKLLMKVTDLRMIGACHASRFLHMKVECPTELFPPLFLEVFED
T3 sequence (P19793 1-462 partner): T1 sequence (P19793 1-462 partner)
How it was run: as §1

[2] = molecular target: T4, human thyroid receptor alpha ligand-binding domain (LBD) (Homo sapiens, UniProt P10827); assay: TR-FRET thyroid receptor alpha coactivator assay (THR biochemical assay, Assay 1); conditions: for EC50: Table 4, THR-alpha, read-out: Activity category Assay 1 (EC50, THR-alpha agonist activity); for Emax: Table 5, THRα, read-out: Activity category Assay 1 THRα (Emax)
T4 construct: purchased Invitrogen
How it was run: as §2

Structure (SMILES): Nc1nn(-c2cc(Cl)c(Oc3cc(C45CC(C4)C5)c(=O)[nH]n3)c(Cl)c2)c(=O)[nH]c1=O [Compound 95]
- Emax (THR alpha): < 50%
- EC50 (THR alpha): 250 to 1000 nM
- EC50 [1]: 50 to 250 nM
- Emax [1]: < 50%
- Emax (THR beta): > 75%
- EC50 (THR beta): 50 to 250 nM
- EC50 [2]: 250 to 1000 nM
- Emax [2]: < 50%

Structure (SMILES): CC1(C)C(=O)Nc2ccc(Oc3c(Cl)cc(-n4nc(N)c(=O)[nH]c4=O)cc3Cl)cc21 [Compound 82, 6-amino-2-[3,5-dichloro-4-[(3,3-dimethyl-2-oxo-1H-indol-5-yl)oxy]phenyl]-4H-1,2,4-triazine-3,5-dione]
- Emax (THR alpha): > 75%
- EC50 (THR alpha): < 50 nM
- EC50 [1]: < 50 nM
- Emax [1]: > 75%
- Emax (THR beta): > 75%
- EC50 (THR beta): < 50 nM
- EC50 [2]: < 50 nM
- Emax [2]: > 75%

Structure (SMILES): CCCc1c[nH]c2ccc(Oc3c(Cl)cc(-n4nc(C#N)c(=O)[nH]c4=O)cc3Cl)nc12 [Compound 19]
- Emax (THR alpha): < 50%
- EC50 (THR alpha): 1000 to 10000 nM
- EC50 [1]: < 50 nM
- Emax [1]: < 50%
- Emax (THR beta): > 75%
- EC50 (THR beta): 1000 to 10000 nM
- EC50 [2]: > 25000 nM
- Emax [2]: < 50%

Structure (SMILES): C[C@H]1C[C@@H](c2cc(Oc3c(Cl)cc(-n4nc(N)c(=O)[nH]c4=O)cc3Cl)n[nH]c2=O)C1 (single isomer, unassigned) [Compound 86-B, 6-Amino-2-(3,5-dichloro-4-((5-((1s,3s)-3-methylcyclobutyl)-6-oxo-1,6-dihydropyridazin-3-yl)oxy)phenyl)-1,2,4-triazine-3,5(2H,4H)-dione]
- Emax (THR alpha): < 50%
- EC50 (THR alpha): 1000 to 10000 nM
- EC50 [1]: 50 to 250 nM
- Emax [1]: < 50%
- Emax (THR beta): > 75%
- EC50 (THR beta): 250 to 1000 nM
- EC50 [2]: 1000 to 25000 nM
- Emax [2]: < 50%

Structure (SMILES): Cc1cc(-n2nc(N)c(=O)[nH]c2=O)cc(C)c1Oc1cc(C(C)C)c(=O)[nH]n1 [Compound 38, 6-Amino-2-[4-[(5-isopropyl-6-oxo-1H-pyridazin-3-yl)oxy]-3,5-dimethylphenyl]-4H-1,2,4-triazine-3,5-dione]
- Emax (THR alpha): < 50%
- EC50 (THR alpha): > 10000 nM
- EC50 [1]: 250 to 1000 nM
- Emax [1]: 50 to 75%
- Emax (THR beta): > 75%
- EC50 (THR beta): 250 to 1000 nM
- EC50 [2]: 1000 to 25000 nM
- Emax [2]: > 75%

Structure (SMILES): Cc1cc(-n2nc(C#N)c(=O)[nH]c2=O)cc(C)c1Cc1ccc2[nH]nc(C(C)C)c2c1 [Compound 57, 2-(4-((3-Isopropyl-1H-indazol-5-yl)methyl)-3,5-dimethylphenyl)-3,5-dioxo-2,3,4,5-tetrahydro-1,2,4-triazine-6-carbonitrile]
- Emax (THR alpha): > 75%
- EC50 (THR alpha): 250 to 1000 nM
- EC50 [1]: < 50 nM
- Emax [1]: < 50%
- Emax (THR beta): > 75%
- EC50 (THR beta): 50 to 250 nM
- EC50 [2]: < 50 nM
- Emax [2]: < 50%

Structure (SMILES): CCCc1c[nH]c2ccc(Oc3c(Cl)cc(-n4nc(C#N)c(=O)[nH]c4=O)cc3Cl)cc12 [Compound 48, 2-[3,5-dichloro-4-[(3-propyl-1H-indol-5-yl)oxy]phenyl]-3,5-dioxo-4H-1,2,4-triazine-6-carbonitrile]
- Emax (THR alpha): > 75%
- EC50 (THR alpha): 250 to 1000 nM
- EC50 [1]: < 50 nM
- Emax [1]: 50 to 75%
- Emax (THR beta): > 75%
- EC50 (THR beta): 50 to 250 nM
- EC50 [2]: < 50 nM
- Emax [2]: 50 to 75%

Structure (SMILES): Cc1cc2cc(Oc3c(Cl)cc(-n4nc(C#N)c(=O)[nH]c4=O)cc3Cl)ccc2[nH]c1=O [Compound 154, 2-[3,5-dichloro-4-[(3-methyl-2-oxo-1H-quinolin-6-yl)oxy]phenyl]-3,5-dioxo-1,2,4-triazine-6-carbonitrile]
- Emax (THR alpha): < 50%
- EC50 [1]: 50 to 250 nM
- Emax [1]: < 50%
- EC50 (THR beta): > 10000 nM
- EC50 [2]: > 25000 nM
- Emax [2]: < 50%

Structure (SMILES): Cc1cc(-c2cc(Oc3c(Cl)cc(-n4nc(N)c(=O)[nH]c4=O)cc3Cl)n[nH]c2=O)ccc1Cl [Compound 116]
- Emax (THR alpha): < 50%
- EC50 (THR alpha): > 10000 nM
- EC50 [1]: 50 to 250 nM
- Emax [1]: < 50%
- Emax (THR beta): < 50%
- EC50 (THR beta): 50 to 250 nM
- EC50 [2]: > 25000 nM
- Emax [2]: < 50%
